From a melting point compilation (Tetko et al.; mined from patent text by program, amines drawn as free bases though some values may be those of a salt)

Structure (SMILES) | melting point
CCCC1(C2=CCN(C)CC2)c2ccccc2CCc2ccccc21 | 122 to 124 °C
CCCCCCCCCCCCCCOc1ccc([N+](=O)[O-])cc1 | 57 to 60 °C
O=C(NCCn1cncn1)c1ccc(Br)cc1 | 160 to 162 °C
Cc1sc2c(c1C)C(c1ccc(Cl)cc1)=NC(CC(=O)NCCN)c1nnc(C)n1-2 (stereo not drawn) | 142 to 146 °C
Cc1cn(C2CC(O)C(CO)(N=[N+]=[N-])O2)c(=O)[nH]c1=O (stereo not drawn) | 175 to 176 °C
COc1ccc(C2(CCN3CCC(C(N)=O)(c4ccccc4)CC3)CCN(C(=O)c3cc(OC)c(OC)c(OC)c3)C2)cc1OC (stereo not drawn) | 60 to 62 °C
Cc1nn(C)c2nc(N(CC3CC3)C(=O)C3CC3)c(CN(Cc3cc(C(F)(F)F)cc(C(F)(F)F)c3)c3nnn(C)n3)cc12 | 120 to 122 °C
CC(C)OC(=O)OCOC(=O)[C@H]1[C@@H]2CC[C@@](N)(C(=O)O)[C@@H]21 | 196 to 197 °C
CSCC[C@H](NC(=O)c1cc(NC(Cn2ccnc2)c2ccc(F)cc2)ccc1CCc1ccc(F)cc1)C(=O)O (stereo partly drawn) | 115 to 120 °C
CCCS(=O)(=O)NCC1CC2C=CC1C2 (stereo not drawn) | 51 to 52 °C
NC(=O)c1ccc(COc2ccc3c(c2)CCN(C2CCN(C4CCC4)CC2)C3=O)cc1 | 292 to 293 °C
O=C(NC(=O)c1cccs1)NC1CCN(Cc2c[nH]c3ccccc23)CC1 | 231 to 232 °C
N#Cc1ccccc1C(Cl)(Cl)Cl | 98.9 to 100 °C
S=C(Nc1cccnc1)N1N=CCC1c1ccccc1 (stereo not drawn) | 156 to 158 °C
CC(=O)Nc1cccc(C=C2C(=O)c3ccccc3OC2c2ccccc2)c1 (stereo not drawn) | 172 to 173 °C
CC(C(=O)O)c1ccc(-c2cn3ccccc3n2)cc1 (stereo not drawn) | 244 to 246 °C
O=C(c1ccc(-n2nc(-c3ccccc3O)nc2-c2ccccc2O)cc1)N1CCOCC1 | 157 to 160 °C
CCC(Cc1ccccc1)(NC(=O)CN)c1ccccc1 (stereo not drawn) | 108 to 110 °C
CC(=O)CCC(=O)Nc1cc(CO)cc(Nc2c3ccccc3nc3ccccc23)c1 | 197 to 199 °C
CN1CCC(O)(c2cc(F)cc(Cl)c2)C1 (stereo not drawn) | 117 to 118 °C
CCC(C)(C)OC(=O)NC(C)(Cc1c[nH]c2ccccc12)C(=O)NC(Cc1cccs1)C(N)=O (stereo not drawn) | 187 to 192 °C

Structure (SMILES) | melting point
O=[N+]([O-])c1c(NCC23CCCN2CCC3)ccc2ccccc12 | 86 to 87 °C
O=CNCC1CCCc2cc(NS(=O)(=O)c3cccc(F)c3)ccc21 (stereo not drawn) | 143 to 144 °C
O=S(=O)(Nc1onc(C(F)(F)F)c1Br)c1ccccc1 | 104 to 105 °C
CCCCCCCCc1ccc(C(=S)c2ccc(OCCCC)cc2O)cc1 | 77 to 79 °C
CCCn1c(=O)c2[nH]c(/C=C/c3ccc(OC)c(OC)c3OC)nc2n(CCC)c1=O | 246 to 247 °C
CC12CC3OC3CC1CCC1C2CCC2(C)C(O)C(N3CCC(O)CC3)CC12 (stereo not drawn) | 204 to 206 °C
COCCCn1nnnc1-c1cc(-c2cccc(C(=O)O)c2)c(OCc2ccccc2)cc1OCc1ccccc1 | 59 to 63 °C
O=c1ccc(-c2ccc(OCC(O)CN3CCCCC3)cc2)n[nH]1 (stereo not drawn) | 185 °C
OCCOc1cccc(-n2ccnc2)c1 | 81 to 83 °C
O=c1[nH]c(CCN2CCN(c3nsc4ccccc34)CC2)cs1 | 190 °C
OCCn1ccc2cccnc21 | 52.7 to 53.3 °C
CN(CCCCCCCCC(=O)O)c1cnc(-c2ccccc2)c(-c2ccccc2)n1 | 103 to 105 °C
O=C(O)CC(c1ccc(F)cc1)c1ccc(F)cc1 | 106 to 107 °C
CCc1cccc(C)c1C(=O)N[C@@H](Cc1ccc(-c2c(C(F)(F)F)cc(C)n(C)c2=O)cc1)C(=O)O | 219 to 221 °C
Nc1nc(NCc2cccc(F)c2)nc2nc(-c3ccco3)nn12 | 216 to 218 °C
NC(=O)CCCCCOc1cc2ccc(-c3ccc(C(=O)O)cc3)cc2cc1C12CC3CC(CC(C3)C1)C2 | 209 to 210 °C
O=C(O)CCCCCCOc1ccc(-c2ccccc2)cc1 | 78 to 79 °C
O=C1COCC2=C1C(c1ccc(F)c(I)c1)C1=C(CCS1(=O)=O)N2 (stereo not drawn) | > 260 °C
CCCN(CCC)C(=O)Cn1c(-c2ccc(Br)cc2)nc2cccnc21 | 153 to 155 °C
O=C1CCCc2cc(NS(=O)(=O)c3ccccc3)ccc21 | 164 to 165 °C
COc1ccc(C2CC3(C)C(C=CC3(C)O)C3CCC4=CC(=O)CCC4C23)cc1 (stereo not drawn) | 192 °C

Structure (SMILES) | melting point
CONc1ccc([N+](=O)[O-])cc1[N+](=O)[O-] | 110 to 112 °C
Cc1nc2ccccc2n1Cc1c(F)cccc1F | 99 °C
FC(F)(F)c1ccc(CCl)cc1 | 224 to 228 °C
O=C(O)C1=CSCCO1 | 144 °C
C#CCn1cc(Cl)cnc1=O | 130 °C
O=C(Nc1c(F)cccc1F)c1ccc(-n2nc(C(F)(F)F)cc2C2CC2)cc1 | 145 to 147 °C
CC1(C)CC(=O)Nc2cc3nc(-c4ccc(S(=O)(=O)O)cc4)[nH]c3cc21 | > 300 °C
O=C(O)c1cccc(-c2cccc(CC(=O)N(Cc3ccccc3)C3c4ccccc4CCC3Cc3ccccc3)c2)c1 (stereo not drawn) | 171 to 172 °C
CCCOC(Cc1ccc(OCCc2nc(C3CC3)oc2C)c2ccsc12)C(=O)O (stereo not drawn) | 61 to 63 °C
CSc1ccc(C[C@@H](NC(=O)OCc2ccccc2)[C@H](O)C(=O)O)cc1 | 174 to 177 °C
O=C(O)CCCCCCCCCCc1ccc(Br)cc1 | 91 °C
c1csc(-c2nc(COc3ccc(CCCn4ccnc4)cc3)cs2)c1 | 76 to 77 °C
N=C(N)N1CCC2c3ccccc3CN21 (stereo not drawn) | 233 to 234 °C
COc1cc2ncnc(N3CCc4cc(OCc5ccccc5)ccc43)c2cc1OC | 181 to 182 °C
CC1CC(=O)c2cc(OCc3ccccc3)cnc2C1 (stereo not drawn) | 80.5 to 81.5 °C
CC1(C)Oc2ccc(C#N)cc2C(OC(=O)C2CCCN2S(=O)(=O)c2ccc([N+](=O)[O-])cc2)C1Br (stereo not drawn) | 177 to 180 °C
CCCCCCCCCCCCCCCCSCC(CN)n1nnc(C)n1 (stereo not drawn) | 82 to 83 °C
CN1C(=O)c2c(-c3ccccc3)noc2CC1c1ccccc1 (stereo not drawn) | 108 to 111 °C
CC1(C)CN=C2C(c3ccccc3)=[N+]([O-])c3cc(C(F)(F)F)ccc3N2C1 | 225 to 227 °C
CCCc1oc(-c2ccccc2)nc1COc1ccc(COc2cccc(CC(=O)O)c2)cc1 | 115 to 116 °C

Further lines, results first:

melting point | Structure (SMILES)
116 to 119 °C | CCOC(=O)CC1N(c2c(C)cccc2C)C(=N)C(C)N1c1c(C)cccc1C (stereo not drawn)
106 °C | O=C(O)C(Oc1ccc(F)c(C(F)(F)F)c1)c1ccc(Cl)cc1 (stereo not drawn)
162 to 163 °C | O=C(C1CC1)N1CCc2cc(S(=O)(=O)N3CCN(c4cccc(Cl)c4)CC3)ccc21
137 to 139 °C | CC(C)C(NC(=O)Cn1cccc(NC(=O)Oc2ccc(Cl)cc2)c1=O)C(=O)C(F)(F)F (stereo not drawn)
200 to 201 °C | CNC(=O)c1cc(C)c(C(c2cc(F)ccc2F)S(=O)(=O)c2ccc(Cl)cc2)cn1 (stereo not drawn)
114 to 115 °C | CCOC(=O)c1ccc(C#CC(=O)Nc2ccccc2)cc1
210 to 212 °C | COc1cc2c(Nc3ccc(Cl)cc3F)ncnc2cc1OCc1ccnc(Br)c1
158 °C | COc1cc(C(=O)Nc2ccc3c(c2)CN(C)CC3)cc(OC)c1OC
85 to 87 °C | CCCC(=O)C(=CNc1ccc(OC(=O)c2ccccc2)cc1OC)C(=O)OCC
197 to 198 °C | O=C(O)c1cnc2n(c1=O)CCC=C2Nc1ccccc1
128 to 129 °C | COc1ccc(OC)c2c1CCC(O)C2 (stereo not drawn)
230 to 232 °C | O=C(O)c1ccc(CSc2nnc(S)s2)cc1
191 to 193 °C | Clc1nc(-c2ccco2)c2ncn(Cc3ccc(Cl)c(Cl)c3)c2n1
195 to 196 °C | Clc1ccc2[nH]c(-c3ccccc3)cc2c1
148 to 150 °C | CSCCC(C)NC(=O)c1c(I)cccc1C(=O)O (stereo not drawn)
> 260 °C | O=C(O)c1ccc2oc(-c3ccc(C(F)(F)F)cc3)cc2c1
156 to 158 °C | CC(=Cc1ccccc1)c1ccc2c(c1)C(C)(C)CCS2(=O)=O
268 to 270 °C | COc1cc2nc(N)nc(-c3ccc(O)c(F)c3)c2cc1OC
191 to 192 °C | C=CCn1c(Br)c(C[C@H](NC(C)=O)C(=O)OC)c2c(Br)c(OC)c(Br)cc21
97 to 98.5 °C | CN(C)CCNC(=O)N1CCC(Sc2ccc(Cl)cc2)C1 (stereo not drawn)
132 to 133 °C | CCOc1cccc(CC(=O)O)c1OCCCc1cc(OC(C)C)nn1Cc1ccc(Cl)cc1Cl

melting point | Structure (SMILES)
158 to 161 °C | Cc1c(-c2ccccc2)oc2c(CS(=O)(=O)CCCl)cccc2c1=O
178 to 180 °C | COc1ccc2[nH]ncc2c1Br
196 to 198 °C | CCOC(=O)c1sc(-n2ccc(OCc3ccc(C(F)(F)F)o3)cc2=O)nc1C
170 to 172 °C | CNS(=O)(=O)C(=O)CCOc1cc(Oc2nn(C)c(C(F)(F)F)c2Cl)ccc1[N+](=O)[O-]
105 to 107 °C | COc1ccc(CN2CCCc3cc(O)c(OC)cc3C2)cc1
151 to 153 °C | O=C(Cn1cncn1)c1ccc(Cl)cc1
103 to 106 °C | COC(=O)c1ccc2cc(C(C)n3ccnc3)ccc2c1 (stereo not drawn)
139 °C | N#Cc1ncn2c(C(F)(F)F)cc(-c3ccc(Cl)cc3Cl)nc12
136 to 138 °C | CS(=O)(=O)NC(=O)CCCCOc1cccc(O)c1C=O
128 to 130 °C | CCCn1cc(C(=O)OCC)c(=O)c2cc(F)c(-n3cccc3)cc21
50 °C | Cc1ccc2ncc(C)cc2c1
212 to 214 °C | CNc1nc(-c2cccc(NC(=O)c3ccccc3O)c2)c2cc(OC)c(OC)cc2n1
47.5 to 48.5 °C | COC(=O)c1cc(Cl)c(C)c(Cl)c1
232 to 233 °C | C=C(C)Cn1c(=O)n(C)c(=O)c2c[nH]nc21
169 to 170 °C | COCC(=O)Oc1ccc(C=CNC(C)=O)cc1
136 to 137 °C | Nc1ccc2c(c1)C(=O)CCO2
159 °C | Cc1c(NC(=O)c2ccc(OC[C@@H]3CCCO3)cc2)ccc2cc(CNCC(C)C)[nH]c12
78 to 79 °C | CCCc1cc(C(=O)OCC)ccc1O
66 to 68 °C | CCOC(=O)COc1ccc(Br)cc1C(C)=O
114 °C | CC(C)C(O)(Cn1cncn1)c1ccc(Oc2ccc(Cl)cc2)cc1C(F)(F)F (stereo not drawn)
